Assays:
5-HT7 receptors [1] = target: T1, 5-HT7 receptors (Homo sapiens, UniProt P34969); assay: HitHunter cAMP enzyme fragment complementation assay, antagonist activity in presence of 5-HT (Kb); format: cell-based; set-up: expressed in transfected cells; kept under G418 selection; details: antagonist mode vs EC70 5-HT
Experimental: Functional efficacy of the compounds of the disclosure on 5-HT7 serotonin receptors were measured in a cell based cAMP enzyme fragment complementation assay using the HitHunter cAMP assay (DiscoveRx). Cells stably expressing human 5HT7 receptors were plated in 96-well plates at 4000 cells/well, 16-20 hours prior to assay in growth media (Ultraculture medium, 2 mM GlutaMax and G418 1 mg/mL. Serial dilutions of the agonist, 5-hydroxytryptamine (5-HT), were prepared in a final concentration range of 10 μM to 10 nM. Compounds of the disclosure were prepared in 3-fold serial dilutions to obtain a final concentration range of 10 μM to 0.1 nM. Compounds of the disclosure are tested for agonist activity in the absence of 5-HT and antagonist activity in the presence of 5-HT. For the cAMP assay, the protocol was followed according to the instructions provided by the supplier. Briefly, cells were incubated with a compound of the disclosure for 30 minutes at 37° C. prior to addition of EC70 concentration of 5-HT. After an additional 30 minutes, cAMP antibody/cell lysis solution was added (20 μL/well) and incubated for 60 minutes at room temperature, cAMP XS+EA reagent is added (20 μL/well) and incubated for 2 hours at room temperature. Luminescence was read on the Envision Multilabel plate reader.

5-HT7 receptors [2] = target: T1, 5-HT7 receptors; assay: Radiolabeled binding ([3H]LSD competition), membranes of cells expressing recombinant 5-HT7 receptors; set-up: expressed in transfected cells; details: for Ki: [3H]LSD radioligand binding; for inhibition at 0.1 µM: read-out: 5-HT7 % Inhib. @ 0.1 uM (Ki column)
Experimental: ^1Radiolabeled Binding (IC50 and K1)
A solution of the compound of the disclosure to be tested was prepared as a 1-mg/ml stock in Assay Buffer or DMSO according to its solubility. A similar stock of the reference compound chlorpromazine was also prepared as a positive control. Eleven dilutions (5×assay concentration) of the compound of the disclosure and chlorpromazine were prepared in the Assay Buffer by serial dilution to yield final corresponding assay concentrations ranging from 10 pM to 10 μM.
A stock concentration of 5 nM [^3H]LSD (lysergic acid diethyl amide) was prepared in 50 mM Tris-HCl, 10 mM MgCl2, 1 mM EDTA, pH 7.4 (Assay Buffer). Aliquots (50 μl) of radioligand were dispensed into the wells of a 96-well plate containing 100 μl of Assay Buffer. Duplicate 50-μl aliquots of the compound of the disclosure test and chlorpromazine positive control reference compound serial dilutions were added.
Membrane fractions of cells expressing recombinant 5-HT7 receptors (50 μL) were dispensed into each well. The membranes were prepared from stably transfected cell lines expressing 5-HT7 receptors cultured on 10-cm plates by harvesting PBS-rinsed monolayers, resuspending and lysing in chilled, hypotonic 50 mM Tris-HCl, pH 7.4, centrifuging at 20,000×g, decanting the supernatant and storing at −80° C.; the membrane preparations were resuspended in 3 ml of chilled Assay Buffer and homogenized by several passages through a 26 gauge needle before using in the assay.
The 250-μl reactions were incubated at room temperature for 1.5 hours, then harvested by rapid filtration onto 0.3% polyethyleneimine-treated, 96-well filter mats using a 96-well Filtermate harvester. Four rapid 500-μl washes were performed with chilled Assay Buffer to reduce non-specific binding. The filter mats were dried, then scintillant is added to the filters and the radioactivity retained on the filters was counted in a Microbeta scintillation counter.
Raw data (dpm) representing total radioligand binding (i.e., specific+non-specific binding) was plotted as a function of the logarithm of the molar concentration of the competitor (i.e., test or reference compound). Non-linear regression of the normalized (i.e., percent radioligand binding compared to that observed in the absence of test or reference compound) raw data was performed in Prism 4.0 (GraphPad Software) using the built-in three parameter logistic model describing ligand competition binding to radioligand-labeled sites:
y=bottom+[(top−bottom)/(1+10×−log IC50)]
where bottom equals the residual radioligand binding measured in the presence of 10 μM reference compound (i.e., non-specific binding) and top equals the total radioligand binding observed in the absence of competitor. The log IC50 (i.e., the log of the ligand concentration that reduces radioligand binding by 50%) was thus estimated from the data and used to obtain the Ki by applying the Cheng-Prusoff approximation:
where [ligand] equals the assay radioligand concentration and KD equals the affinity constant of the radioligand for the target receptor. Functional Data (Kb)

T1 sequence (P34969 whole entry, the tested form may be a part): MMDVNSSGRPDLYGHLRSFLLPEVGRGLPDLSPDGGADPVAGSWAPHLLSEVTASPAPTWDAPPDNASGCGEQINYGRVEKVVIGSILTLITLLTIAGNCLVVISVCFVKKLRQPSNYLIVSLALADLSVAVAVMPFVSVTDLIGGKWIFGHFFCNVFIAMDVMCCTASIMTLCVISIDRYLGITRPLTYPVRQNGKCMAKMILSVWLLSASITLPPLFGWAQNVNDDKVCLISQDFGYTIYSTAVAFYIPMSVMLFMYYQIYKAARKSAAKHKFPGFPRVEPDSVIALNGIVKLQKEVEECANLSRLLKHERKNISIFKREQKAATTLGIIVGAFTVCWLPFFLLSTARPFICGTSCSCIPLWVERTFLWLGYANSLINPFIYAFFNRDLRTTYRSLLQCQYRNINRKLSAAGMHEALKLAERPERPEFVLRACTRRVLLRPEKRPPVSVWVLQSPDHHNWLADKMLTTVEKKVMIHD

Kb (5-HT7 receptors [1]) [nM]	Ki (5-HT7 receptors [2]) [nM]	SMILES	further results
10 to 100		CN1C(=O)C2(CCN(C(=O)C(C)(C)C)CC2)C[C@@H]1CCN1CCN(c2cccc(Cl)c2)CC1 [Compound A91]	
10 to 100		CC(=O)N1CCC2(CC1)C[C@H](CCN1CCN(c3cccc(Cl)c3)CC1)N(C)C2=O [Compound A89]	
10 to 100		NCC(=O)N1CCC2(CC1)C[C@H](CCN1CCN(c3ccc(F)cc3)CC1)NC2=O [Compound A2]	
< 10		CC(=O)N[C@@H](C)C(=O)N1CCC2(CC1)C[C@H](CCN1CCN(c3ccc(F)cc3)CC1)NC2=O [Compound A39]	
	200 to 500	CC(C)(N)C(=O)N1CCC2(CC1)C[C@H](CCN1CCN(c3ccc(F)cc3)CC1)NC2=O [Compound A13]	
10 to 100	< 50	CCC1(CC)C[C@H](CCN2CCN(c3ccc(F)cc3)CC2)N(C)C1=O [Compound A87]	
< 10		CN1C(=O)C2(CCN(C(=O)C(C)(C)C)CC2)C[C@@H]1CCN1CCN(c2ccc(F)cc2)CC1 [Compound A90]	
≥ 500		O=C(Cc1nnn[nH]1)N1CCC2(CC1)C[C@H](CCN1CCN(c3ccc(F)cc3)CC1)NC2=O [Compound A82]	
10 to 100	50 to 200	CS(=O)(=O)NCC(=O)N1CCC2(CC1)C[C@H](CCN1CCN(c3cccc(Cl)c3)CC1)NC2=O [Compound A9]	
< 10		CC(=O)N1CCC2(CC1)C[C@H](CCN1CCN(c3ccc(F)cc3)C[C@H]1C)NC2=O [Compound A108]	inhibition at 0.1 µM (5-HT7 receptors [2]): 63%
	200 to 500	CC(=O)NC(C)(C)C(=O)N1CCC2(CC1)C[C@H](CCN1CCN(c3ccc(F)cc3)CC1)NC2=O [Compound A17]	
	200 to 500	CC(C)(C)C(=O)NCC(=O)N1CCC2(CC1)C[C@H](CCN1CCN(c3ccc(F)cc3)CC1)NC2=O [Compound A25]	
	200 to 500	CC(=O)NC(C)(C)C(=O)N1CCC2(CC1)C[C@H](CCN1CCN(c3cccc(Cl)c3)CC1)NC2=O [Compound A18]	
< 10		CC(=O)N[C@H](C(=O)N1CCC2(CC1)C[C@H](CCN1CCN(c3ccc(F)cc3)CC1)NC2=O)C(C)C [Compound A184]	
100 to 500		O=C(c1cccnc1)N1CCC2(CC1)C[C@H](CCN1CCN(c3ccc(F)cc3)CC1)NC2=O [Compound A81]	
10 to 100		CC(=O)N1CCC2(CC1)C[C@H](CCN1CCN(c3ccc(F)cc3)CC1)N(C)C2=O [Compound A88]	
	200 to 500	CC(C)(N)C(=O)N1CCC2(CC1)C[C@H](CCN1CCN(c3cccc(Cl)c3)CC1)NC2=O [Compound A14]	
		CC(=O)N1CCC2(CC1)C[C@H](CCN1CCN(c3ccc(F)cc3)[C@H](C)C1)NC2=O [Compound A110]	inhibition at 1 µM (5-HT7 receptors [2]; read-out: 5-HT7 % Inhib. @ 1 uM (Ki column)): 45%
10 to 100		CC(=O)N1CCC2(CC1)C[C@H](CCN1CCN(c3ccc(F)cc3)[C@@H](C)C1)NC2=O [Compound A109]	inhibition at 0.1 µM (5-HT7 receptors [2]): 40%
< 10		CN1C(=O)C2(CCN(C(=O)C(C)(F)F)CC2)C[C@@H]1CCN1CCN(c2ccc(F)cc2)CC1 [Compound A103]	
< 10		NCC(=O)N1CCC2(CC1)C[C@H](CCN1CCN(c3cccc(Cl)c3)CC1)NC2=O [Compound A1]	
< 10	< 50	CCC1(CC)C[C@H](CCN2CCN(c3cccc(Cl)c3)CC2)N(C)C1=O [Compound A86]	
< 10		CC(=O)NCC(=O)N1CCC2(CC1)C[C@H](CCN1CCN(c3cccc(Cl)c3)CC1)NC2=O [Compound A5]	

Kb (5-HT7 receptors [1]) [nM]	Ki (5-HT7 receptors [2]) [nM]	SMILES	further results
< 10		CC(=O)N[C@@H](C)C(=O)N1CCC2(CC1)C[C@H](CCN1CCN(c3cccc(Cl)c3)CC1)NC2=O [Compound A40]	
100 to 500		O=C(CN1CCOC1=O)N1CCC2(CC1)C[C@H](CCN1CCN(c3ccc(F)cc3)CC1)NC2=O [Compound A83]	
< 10		CC[C@H](NC(C)=O)C(=O)N1CCC2(CC1)C[C@H](CCN1CCN(c3ccc(F)cc3)CC1)NC2=O [Compound A183]	
< 10		CC(=O)NCC(=O)N1CCC2(CC1)C[C@H](CCN1CCN(c3ccc(F)cc3)CC1)NC2=O [Compound A6]	
	≥ 500	O=C(CN1CCOCC1)N1CCC2(CC1)C[C@H](CCN1CCN(c3ccc(F)cc3)CC1)NC2=O [Compound A33]	
10 to 100		COC(=O)N1CCC2(CC1)C[C@H](CCN1CCN(c3ccc(F)cc3)CC1)N(C)C2=O [Compound A124]	
10 to 100	50 to 200	CCC1(CC)C[C@H](CCN2CCN(c3ccccc3)CC2)N(C)C1=O [Compound A85]	
< 10		CC(F)(F)C(=O)N1CCC2(CC1)C[C@H](CCN1CCN(c3ccc(F)cc3)CC1)NC2=O [Compound A93]	
	200 to 500	CC(C)(C)C(=O)NCC(=O)N1CCC2(CC1)C[C@H](CCN1CCN(c3cccc(Cl)c3)CC1)NC2=O [Compound A26]	
	≥ 500	CN(C)CC(=O)N1CCC2(CC1)C[C@H](CCN1CCN(c3ccc(F)cc3)CC1)NC2=O [Compound A29]	
	50 to 200	CC(C)(C)C(=O)NC(C)(C)C(=O)N1CCC2(CC1)C[C@H](CCN1CCN(c3cccc(Cl)c3)CC1)NC2=O [Compound A22]	
10 to 100		CC(C)C(=O)N1CCC2(CC1)C[C@H](CCN1CCN(c3ccc(F)cc3)CC1)N(C)C2=O [Compound A98]	
< 10		CC(=O)N1CCC2(CC1)C[C@H](CCN1CCN(c3ccc(F)cc3)C[C@@H]1C)NC2=O [Compound A107]	inhibition at 0.1 µM (5-HT7 receptors [2]): 62%
	200 to 500	O=C(CN1CCOCC1)N1CCC2(CC1)C[C@H](CCN1CCN(c3cccc(Cl)c3)CC1)NC2=O [Compound A34]	
10 to 100		O=C(CC(F)(F)F)N1CCC2(CC1)C[C@H](CCN1CCN(c3ccc(F)cc3)CC1)NC2=O [Compound A95]	
< 10		CCC(=O)N1CCC2(CC1)C[C@H](CCN1CCN(c3ccc(F)cc3)CC1)N(C)C2=O [Compound A97]	
< 10		CC(=O)N[C@@H](C)C(=O)N1CCC2(CC1)C[C@H](CCN1CCN(c3ccc(F)cc3)C[C@H]1C)NC2=O [Compound A123]	inhibition at 0.1 µM (5-HT7 receptors [2]): 64%
10 to 100	50 to 200	CS(=O)(=O)NCC(=O)N1CCC2(CC1)C[C@H](CCN1CCN(c3ccc(F)cc3)CC1)NC2=O [Compound A10]	
	200 to 500	CN(C)CC(=O)N1CCC2(CC1)C[C@H](CCN1CCN(c3cccc(Cl)c3)CC1)NC2=O [Compound A30]	
100 to 500		O=C(c1cccnn1)N1CCC2(CC1)C[C@H](CCN1CCN(c3ccc(F)cc3)CC1)NC2=O [Compound A84]	
	50 to 200	CC(C)(C)C(=O)NC(C)(C)C(=O)N1CCC2(CC1)C[C@H](CCN1CCN(c3ccc(F)cc3)CC1)NC2=O [Compound A21]	
< 10		CN1C(=O)C2(CCN(C(=O)C3CC3)CC2)C[C@@H]1CCN1CCN(c2ccc(F)cc2)CC1 [Compound A99]	

Reference: patent US20230002383A1, “NOVEL FUNCTIONALIZED LACTAMS AS MODULATORS OF THE 5-HYDROXYTRYPTAMINE RECEPTOR 7 AND THEIR METHOD OF USE” (Temple University-Of The Commonwealth System of Higher …, priority 2019, published 2023)
